In US20100168085A1, “Dopamine and agonists and antagonists thereof for modulation of suppressive activity of CD4+CD25+ regulatory T cells” (YESA RESEARCH AND DEVELOPMENT CO. LTD. at the Weizmann …, priority 2003, published 2010):
Where “and” joins values, the source holds several entries; their conditions need not be identical. Identical values can stand only once. Entries after “also recorded” stand apart in the source; their conditions may differ. Marks after values point to notes of the source that are not given here. Where no end group is shown, it is not given here.

Experiments:
[1] = tested on: suppressive activity of CD4+CD25+ regulatory T cells (Treg) on Teff proliferation; assay: Inhibition assay (co-culturing of Teff with Treg), [3H]-thymidine incorporation; format: cell-based, mouse; settings: for Effect on ability of Treg to suppress Teff proliferation: Treg preincubated with different concentrations; for Suppressive activity of Treg on Teff, kinase inhibitor treatment: activated Treg incubated with inhibitor
Description: (xvi) Activation of CD4^+CD25^+ regulatory T cells. Purified regulatory T cells (Treg; 0.5×10^6 cells/mL) were activated in RPMI medium supplemented with L-glutamine (2 mM), 2-mercaptoethanol (5×10^−5 M), sodium pyruvate (1 mM), penicillin (100 IU/mL), streptomycin (100 μg/mL), nonessential amino acids (1 mL/100 mL), and autologous serum 2% (vol/vol) in the presence of mrIL-2 (5 ng/mL) and soluble anti-CD3 antibodies (1 ng/mL). Irradiated (2500 rad) splenocytes (1.5×10^6 cells/mL) were added to the culture. Cells were activated for 24 or 96 h. In some of the 96-h experiments, fresh dopamine was added to the culture every 24 h during activation.
(xvii) Inhibition assay (co-culturing of Teff with Treg). Naïve effector T cells (Teff; 50×10^3 cells/well) were co-cultured with decreasing numbers of activated Treg for 72 h in 96-well flat-bottomed plates in the presence of irradiated splenocytes (10^6/mL) supplemented with anti-CD3 antibodies. [^3H]-thymidine (1 μCi) was added for the last 16 h of culture. After the cells were harvested, their [^3H]-thymidine content was analyzed by the use of […].
In this experiment, we examined whether dopamine acts on Treg and alters their suppressive effect on Teff. Suppression of proliferation of Teff, assayed by [^3H]thymidine incorporation, was used as a measure of suppressive effect of Treg (Thornton and Shevach, 1998).
Shevach, 1998, 2000). Inhibition of Treg proliferation, assayed by [^3H]thymidine incorporation, can therefore be taken as a measure of the suppressive effect. We examined the ability of major neurotransmitters and neuropeptides (dopamine, norepinephrine, substance P, and serotonin) to alleviate the Treg-induced suppression of Teff in vitro. Each compound was tested at several concentrations. […] After incubating the activated Treg for 2 h with a neurotransmitter or a neuropeptide, we washed the cells and then co-cultured them with Teff.

[2] = tested on: adhesion of Treg and Teff to chondroitin sulfate proteoglycans (CSPG); assay: T cell adhesion to CSPG; format: cell-based, mouse
Description: (xiii) T cell adhesion. Adhesion of activated CD4^+CD25^+ and CD4^+CD25^− T cells to CSPG was analyzed as previously described (23). Briefly, flat-bottomed microtiter (96-well) plates were pre-coated with CSPG (1 μg/well, 40 min, 37° C.). ^51Cr-labeled T cells were left untreated or were pre-incubated (30 min, 37° C.) with dopamine or the specified agonist or antagonist (10^−5M). The cells (10^5 cells in 100 μL of RPMI containing 0.1% BSA) were then added to the CSPG-coated wells, incubated (30 min, 37° C.), and washed. Adherent cells were lysed and the resulting supernatants were removed and counted in a γ-counter. Results were expressed as the mean percentage of the total population before adhesion of bound T cells from quadruplicate wells for each experimental group.
One of the main features of T cells is their ability to migrate to tissues in need of rescue or repair [such as diseased or damaged CNS (Hickey, 1999; Flugel et al., 2001). […] We therefore incubated Treg with dopamine for 2 h and then examined their adhesion to chondroitin sulfate proteoglycans (CSPG), extracellular matrix proteins often associated with injured tissues (Jones et al., 2003).
To verify that the effect of dopamine on adhesion of Treg is exerted through the ERK1/2 pathway, we incubated Treg with the ERK1/2 signaling pathway inhibitor PD98059 before carrying out the adhesion assay. […] Since interaction of T cells with CSPG is mediated in part by the CD44 receptor (Henke et al., 1996), and in light of the known dependence of CD44 expression on the ERK signaling pathway, it was conceivable that dopamine might affect the expression of CD44 in Treg.

[3] = tested on: mouse solid melanoma tumor cells M2R; assay: M2R melanoma tumor development in mice; format: in vivo
Description: To verify the effect of dopamine and its related compounds on tumor growth, C57BL mice were injected with the specific D1-R agonist SKF-38393 (3.3 mg/kg) immediately after inoculation of mouse solid melanoma tumor cells M2R. The experimental group (n=10) received a single injection of SKF-38393, and a control group (n=11) was injected with PBS.
To further isolate the effect of dopamine on the immune system, C57BL mice (n=10) and SCID mice (n=8) were injected with SKF-38393 (3.3 mg/kg) immediately after injecting them with solid tumor cells M2R (FIG. 9c).

[4] = tested on: mice, glutamate-induced retinal ganglion cell death; assay: Intravitreal glutamate toxicity, retinal ganglion cell survival; format: in vivo, mouse; settings: retinas excised 7 days afterwards
[5] = tested on: phospho-ERK1/2 in Treg and Teff; assay: ERK1/2 phosphorylation (intracellular FACS staining, Western blot); format: cell-based, mouse; settings: activation with anti-CD3 and anti-CD28 for 20 min
Description: (ix) FACS analysis of intracellular labeling of phosphorylated form of ERK. T-cell subpopulations were fixed in 1.5% formaldehyde for 10 min at room temperature, washed, resuspended with vortexing in cold 100% methanol, and incubated for 1 h at 4° C. The cells were then washed with PBS containing 1% bovine serum albumin (BSA) and resuspended in 100 μL of PBS/BSA, and 12.5 μL of anti-phosphoERK1 & 2 (BioSource) was added for 20 min at room temperature. The cells were then washed, resuspended in PBS, and analyzed by FACSCalibur (Becton-Dickinson). As a negative control we incubated the phospho-peptide for 20 min with its antibody and then added the mixture to T cells.
(xix) Western blotting. Cells were stimulated for 20 min with anti-CD3 and anti-CD28 antibodies in the presence or absence of dopamine or SKF-38393. Cell lysates were prepared using RIPA lysis buffer (50 mM Tris, pH 8; 0.1% SDS; 0.5% deoxycholate; 1% NP40; 500 mM NaCl; 10 mM MgCl2) and were then kept on ice for 10 min before being vortexed and centrifuged. Supernatants were collected and 5× sample buffer (containing 25 mM Tris pH 6.8, 2% sodium dodecyl sulfate (SDS), 10% glycerol, 0.1% bromophenol blue, 0.5 M β-mercaptoethanol) was added prior to boiling. Cell extracts were separated by SDS-PAGE (10% polyacrylamide), and blotted onto nitrocellulose. Activated ERK1/2 was detected by probing blots with a 1:30,000 dilution of monoclonal antibody. Total ERK protein was detected by using a 1:10,000 dilution of a polyclonal rabbit antibody. The blots were developed by horseradish peroxidase-conjugated anti-mouse or anti-rabbit Fab and ECL (Amersham). Signals were quantified using NIH Image 1.62.
Treg were activated for 20 min in the presence or absence of dopamine (10^−5 M), and were then subjected to intracellular phosphoprotein staining (Perez and Nolan 2002) and analyzed by flow cytometry. […] As a measure of the background nonspecific staining of the phosphorylated ERK we used a specific peptide of phospho-ERK, which competes for binding of the antibody. The intracellular staining procedure for phospho-ERK detection by FACS was validated by the use of Teff incubated with 20 μM phorbol 12-myristate 13-acetate (PMA), known to stimulate the activity of protein kinase C (PKC) (data not shown).

[6] = tested on: mice, glutamate-induced retinal ganglion cell death; assay: Intravitreal glutamate toxicity, retinal ganglion cell survival; format: in vivo, mouse; settings: for Changes in neuronal survival in treated relative to untreated mice (mean±SEM): systemic injection immediately after glutamate intoxication
Description: (iii) Intravitreal glutamate injection. The right eyes of anesthetized mice were punctured with a 27-gauge needle in the upper part of the sclera, and a 10-μL Hamilton syringe with a 30-gauge needle was inserted as far as the vitreal body. A total volume of 1 μl, of L-glutamate (400 nmol) dissolved in saline was injected into the eye.
(iv) Retrograde labeling of retinal ganglion cells. Mice were anesthetized and placed in a stereotactic device. The skull was exposed and kept dry and clean. The bregma was identified and marked. The designated point of injection was at a depth of 2 mm from the brain surface, 2.92 mm behind the bregma in the anteroposterior axis and 0.5 mm lateral to the midline. A window was drilled in the scalp above the designated coordinates in the right and left hemispheres. The neurotracer dye FluoroGold (5% solution in saline; Fluorochrome, Denver, Colo.) was applied (1 μL, at a rate of 0.5 μL/min in each hemisphere) using a Hamilton syringe, and the skin over the wound was sutured.
(xxi) Assessment of mouse retinal ganglion cell survival. Mice were given a lethal dose of pentobarbitone (170 mg/kg). Their eyes were enucleated and the retinas were detached and prepared as flattened whole mounts in 4% paraformaldehyde solution. Labeled cells from 4-6 selected fields of identical size (0.7 mm^2) were counted. The selected fields were located at approximately the same distance from the optic disk (0.3 mm) to overcome the variation in RGC density as a function of distance from the optic disk. Fields were counted under the fluorescence microscope (magnification ×800) by observers blinded to the identity of the retinas. The average number of RGCs per field in each retina was calculated.
Injection of glutamate into the eyes of adult mice causes retinal ganglion cell death that is measurable 1 week after the injection (Mizrahi et al., 2002; Schori et al., 2001a; Katayama et al., 1990). We injected Balb/c mice intraperitoneally (i.p.) with the dopamine, or its specific D1-type agonist SKF-38393 (3.3 mg/kg), or its specific D1-type antagonist SCH-23390 (3 mg/kg), immediately after their exposure to glutamate toxicity. We also injected SCID Balb/c mice with SKF-38393 (3.3 mg/kg) immediately after glutamate intoxication.
Immediately after glutamate intoxication mice were systemically injected with the indicated drugs. Neuronal survival was determined ten days later (see Materials and Methods). The results are expressed by changes (in percentage) in neuronal survival in treated mice relative to untreated mice. Each value represents a mean±SEM of a group of at least 5 animals, and each experiment was performed at least twice, independently. Asterisks (***, P<0.001; **, P<0.01) indicate statistical significance of the presented data from a single experiment using a Student's T-test statistical analysis. (NT—not tested; ns—no statistical significance).

Treg = Treg apoptosis (propidium iodide sub-G1, annexin V, FACS); format: cell-based, mouse; settings: Treg incubated with compound
Description: (viii) FACS analysis of annexin V-positive regulatory T cells. PE-stained CD25^+ cells were stained for annexin V-FITC according to the manufacturer's instructions. The cells were scored as described above, and CD25^+ lymphocytes were then gated for analysis of annexin V-positive cells.
(xv) Propidium iodide staining. Cells were fixed in cold ethanol 80% and treated with RNAse. Propidium iodide was then applied, and cell samples were assessed by FACSort.

Compound: NCCc1c[nH]c2ccc(O)cc12 [serotonin]
- Effect on ability of Treg to suppress Teff proliferation [1]: no effect

Compound: substance P: a pain- and stress-related neurotransmitter (neuropeptide) (RPKPQQFFGLM-NH2; UniProt P20366 58-68, looked up)
- Effect on ability of Treg to suppress Teff proliferation [1]: no effect

Compound: O=c1c(-c2ccc(O)cc2)coc2cc(O)cc(O)c12 [genistein, 4′,5,7-trihydroxy isoflavone]
- Suppressive activity of Treg on Teff, kinase inhibitor treatment [1]: blocked the suppressive activity
- Proliferation of Treg themselves ([1]; in the presence of genistein): underwent proliferation themselves
- Proliferation of Teff ([1]; same concentration as used on Treg): had no effect

Compound: COc1cccc(-c2cc(=O)c3ccccc3o2)c1N [PD98059]
- Suppressive activity of Treg on Teff, kinase inhibitor treatment [1]: significantly reduced the suppressive activity; also recorded: almost completely abolished their suppression
- Adhesion of Treg to CSPG after ERK1/2 pathway inhibitor ([2]; Treg incubated with PD98059 before assay): significantly reduced

Compound: NC[C@H](O)c1ccc(O)c(O)c1 [norepinephrine]
- Effect on suppressive activity of Treg ([1]; 10^−5 or 10^−7 M for 2 h after 24 h activation): did not affect the suppressive activity of Treg
- Effect on ability of Treg to suppress Teff proliferation [1]: no effect

Compound: Oc1cc2c(cc1O)C(c1ccccc1)CNCC2 (racemic) [SKF-38393, (+/−)-1-Phenyl-2,3,4,5-tetrahydro-(1H)-3-benzazepine-7,8-diol.HC1]
- Tumor development ([3]; C57BL mice, single injection 3.3 mg/kg immediately after M2R inoculation): significantly attenuated
- Tumor development ([3]; SCID mice, 3.3 mg/kg immediately after M2R inoculation): No effect
- Effect on suppressive activity of Treg, compound alone ([1]; 10^−5 M): reproduced the dopamine effect
- Neuronal survival compared to vehicle-injected mice ([4]; 0.33 mg/kg i.v.): neuroprotective trend, however not significant
- Neuronal survival compared to vehicle-injected mice ([4]; 3.3 mg/kg i.v.): significant increase in neuronal survival
- Adhesion of Treg to CSPG ([2]; dopamine 10^−9-10^−5 M, concentration-dependent, agonist 10^−5 M): mimicked
- Phospho-ERK1/2 in activated Treg, Western blot [5]: reduced
- Increase in neuronal survival relative to PBS-treated glutamate-injected controls ([6]; Balb/c, single i.p. injection, dopamine 0.4 mg/kg, SKF-38393 3.3 mg/kg): 19±3.2%
- Effect on neuronal survival in immune-deficient mice ([6]; SCID Balb/c, 3.3 mg/kg): no effect; also recorded: lack of effect
- Changes in neuronal survival in treated relative to untreated mice (mean±SEM) ([6]; SCID mice): 3 ± 1.8 (ns) percentage
- Changes in neuronal survival in treated relative to untreated mice (mean±SEM) ([6]; Wild type mice): 19 ± 3.2** percentage
- Apoptosis, annexin V staining for phosphatidylserine (Treg): No increase in annexin V-labeled cells

Compound: CN1CCc2cc(Cl)c(O)cc2[C@@H](c2ccccc2)C1 [SCH-23390]
- Decrease in neuronal survival relative to PBS-injected mice ([6]; Balb/c, SCH-23390 3 mg/kg i.p., 3 mg/kg): 11±1.5% and 11%
- Changes in neuronal survival in treated relative to untreated mice (mean±SEM) ([6]; Wild type mice): −11 ± 1.5** percentage
